Source: PubChem BioAssay (NCI)
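Five concentrations, 48 hours, 96-well plates. The concentration for 50% growth inhibition is given as GI50. TGI denotes the concentration required for complete inhibition of growth.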

Columns and labels:
Assay in all cases: NCI tumour cell line growth inhibition, 48 h
[1] = tested on: HCT-15 colon
[2] = tested on: 786-0 renal
[3] = tested on: MOLT-4 leukemia
[4] = tested on: MALME-3M melanoma
[5] = tested on: SF-539 CNS
[6] = tested on: SR leukemia
[7] = tested on: IGROV1 ovarian
[8] = tested on: TK-10 renal
[9] = tested on: HOP-92 NSCLC
[10] = tested on: PC-3 prostate
[11] = tested on: SN12C renal
[12] = tested on: SF-295 CNS
[13] = tested on: UO-31 renal
[14] = tested on: OVCAR-4 ovarian
[15] = tested on: NCI-H522 lung
[16] = tested on: CAKI-1 renal
[17] = tested on: M14 melanoma
[18] = tested on: OVCAR-8 ovarian
[19] = tested on: KM12 colon
[20] = tested on: HL-60(TB) leukemia
[21] = tested on: BT-549 breast
[22] = tested on: HT29 colon
[23] = tested on: A549 NSCLC
[24] = tested on: CCRF-CEM leukemia
[25] = tested on: MCF7 breast
[26] = tested on: K-562 leukemia
[27] = tested on: COLO 205 colon
[28] = tested on: DU-145 prostate
[29] = tested on: A498 renal
[30] = tested on: SK-MEL-5 melanoma
[31] = tested on: NCI-H460 lung
[32] = tested on: NCI-H23 lung
[33] = tested on: RPMI-8226 leukemia
[34] = tested on: HS 578T breast
[35] = tested on: MDA-MB-231 breast
[36] = tested on: UACC-257 melanoma
[37] = tested on: OVCAR-3 ovarian
[38] = tested on: NCI-H226 lung
[39] = tested on: ACHN renal
[40] = tested on: SW-620 colon
[41] = tested on: RXF 393 renal
[42] = tested on: LOX IMVI melanoma
[43] = tested on: SF-268 CNS
[44] = tested on: U251 CNS
[45] = tested on: SK-OV-3 ovarian
[46] = tested on: SNB-75 CNS
[47] = tested on: HCT-116 colon
[48] = tested on: HCC-2998 colon
[49] = tested on: SNB-19 CNS
[50] = tested on: UACC-62 melanoma
[51] = tested on: HOP-62 NSCLC

With Nc1c(C(=O)Nc2ccccc2)sc2nc3c(cc12)C(O)CCC3 (stereo not given) the GI50 [1] was 336 nM, the TGI [1] was > 100000 nM and the GI50 [2] was 623 nM. For the same molecule, the TGI [2] was > 100000 nM, the GI50 [3] was 491 nM and the TGI [3] was > 100000 nM. For the same molecule, the GI50 [4] was 256 nM, the TGI [4] was > 100000 nM and the GI50 [5] was 225 nM. For the same molecule, the TGI [5] was 604 nM, the GI50 [6] was 168 nM and the TGI [6] was > 100000 nM. For the same molecule, the GI50 [7] was 650 nM, the TGI [7] was > 100000 nM and the GI50 [8] was > 100000 nM. For the same molecule, the TGI [8] was > 100000 nM, the GI50 [9] was 264 nM and the TGI [9] was > 100000 nM. The GI50 [10] was 325 nM, the TGI [10] was > 100000 nM and the GI50 [11] was 559 nM. For the same molecule, the TGI [11] was > 100000 nM, the GI50 [12] was 297 nM and the TGI [12] was > 100000 nM. For the same molecule, the GI50 [13] was 689 nM, the TGI [13] was > 100000 nM and the GI50 [14] was 3660 nM. The TGI [14] was > 100000 nM, the GI50 [15] was 280 nM and the GI50 [16] was 349 nM. The TGI [16] was > 100000 nM, the GI50 [17] was 281 nM and the TGI [17] was > 100000 nM. For the same molecule, the GI50 [18] was 471 nM, the TGI [18] was > 100000 nM and the GI50 [19] was 440 nM. The TGI [19] was > 100000 nM, the GI50 [20] was 232 nM and the TGI [20] was 706 nM. For the same molecule, the GI50 [21] was 1240 nM, the TGI [21] was > 100000 nM and the GI50 [22] was 323 nM. For the same molecule, the GI50 [23] was 406 nM, the TGI [23] was > 100000 nM and the GI50 [24] was 323 nM. The TGI [24] was > 100000 nM, the GI50 [25] was 241 nM and the TGI [25] was > 100000 nM. For the same molecule, the GI50 [26] was 196 nM, the TGI [26] was > 100000 nM and the GI50 [27] was 295 nM. The TGI [27] was 2630 nM, the GI50 [28] was 355 nM and the TGI [28] was > 100000 nM. The GI50 [29] was 273 nM, the TGI [29] was > 100000 nM and the GI50 [30] was 407 nM. The TGI [30] was 23900 nM, the GI50 [31] was 355 nM and the TGI [31] was > 100000 nM. The GI50 [32] was 665 nM, the TGI [32] was > 100000 nM and the GI50 [33] was 372 nM. For the same molecule, the TGI [33] was > 100000 nM, the GI50 [34] was 362 nM and the TGI [34] was > 100000 nM. The GI50 [35] was 946 nM, the TGI [35] was > 100000 nM and the GI50 [36] was > 100000 nM. For the same molecule, the TGI [36] was > 100000 nM, the GI50 [37] was 344 nM and the TGI [37] was > 100000 nM. For the same molecule, the GI50 [38] was 1270 nM, the TGI [38] was > 100000 nM and the GI50 [39] was 981 nM. The TGI [39] was > 100000 nM, the GI50 [40] was 371 nM and the TGI [40] was > 100000 nM. The GI50 [41] was 349 nM, the TGI [41] was > 100000 nM and the GI50 [42] was 638 nM. For the same molecule, the TGI [42] was > 100000 nM, the GI50 [43] was 700 nM and the TGI [43] was > 100000 nM. The GI50 [44] was 362 nM, the TGI [44] was > 100000 nM and the GI50 [45] was 439 nM. For the same molecule, the TGI [45] was > 100000 nM, the GI50 [46] was 278 nM and the TGI [46] was > 100000 nM. For the same molecule, the GI50 [47] was 488 nM, the TGI [47] was > 100000 nM and the GI50 [48] was 1070 nM. For the same molecule, the TGI [48] was > 79300 nM, the GI50 [49] was 577 nM and the TGI [49] was > 100000 nM. For the same molecule, the GI50 [50] was 444 nM, the TGI [50] was > 100000 nM and the GI50 [51] was 455 nM. For the same molecule, the TGI [51] was > 100000 nM.
